According to patent publication US11299715B2, “Use of iNOS inhibitors to increase viral yield in culture” (priority 2013, dated 2022):

System: iNOS
Test: Western blot of iNOS in HSV-1 d27.1-infected V27 cell lysates
Type: cell-based, African green monkey
Conditions: 30 μM ATA; d27.1 MOI 1; V27 lysates 24 h.p.i.; with or without 10% FBS
Experimental: V27 cells in Dulbecco's Modified Eagles Medium (DMEM) (Hyclone, Waltham, Mass.) were infected with the HSV-1 d27.1 vector at an MOI of 1 and treated with 30 μM ATA (Sigma, St. Louis, Mo.), with or without 10% fetal bovine serum (FBS). Control experiments without ATA were also performed. V27 cell lysates were obtained 24 hours post infection (h.p.i.) and Western blots were run on the lysates and iNOS protein was detected by using purified rabbit anti-iNOS/NOS Type II pAb (BD Biosciences, Cat#610332).

O=C(O)C1=CC(=C(c2ccc(O)c(C(=O)O)c2)c2ccc(O)c(C(=O)O)c2)C=CC1=O [ATA, 5-((3-carboxy-4-hydroxyphenyl)(3-carboxy-4-oxo-2,5-cyclohexadien-1-ylidene)methyl)-2-hydroxybenzoic acid]
iNOS expression (Western blot): inhibits
